Source: US9695155B2, “Herbicidal substituted pyrimidinyloxy benzene compounds” (E. I. DU PONT DE NEMOURS AND COMPANY, priority 2013, dated 2017)

Key:
goosegrass = experiment: Test E preemergence; assay type: in vivo, Eleusine indica; conditions: for Goosegrass plant response rating: scale 0 to 100 (0 no effect, 100 complete control); for Plant response rating, Goosegrass: scale 0 to 100, 0 no effect, 100 complete control
Description: (§1) Seeds of plant species selected from corn (Zea mays), soybean (Glycine max), velvetleaf (Abutilon theophrasti), lambsquarters (Chenopodium album), wild poinsettia (Euphorbia heterophylla), palmer pigweed (Amaranthus palmeri), waterhemp (common waterhemp, Amaranthus rudis), surinam grass (Brachiaria decumbens), large (Lg) crabgrass (Digitaria sanguinalis), Brazilian crabgrass (Digitaria horizontalis), fall panicum (Panicum dichotomiflorum), giant foxtail (Setaria faberii), green foxtail (Setaria viridis), goosegrass (Eleusine indica), johnsongrass (Sorghum halepense), ragweed (common ragweed, Ambrosia elatior), barnyardgrass (Echinochloa crus-galli), sandbur (southern sandbur, Cenchrus echinatus), arrowleaf sida (Sida rhombifolia), Italian ryegrass (Lolium multiflorum), dayflower (Virginia (VA) dayflower, Commelina virginica), field bindweed (Convolvulus arvensis), morningglory (Ipomoea coccinea), nightshade (eastern black nightshade, Solanum ptycanthum), kochia (Kochia scoparia), yellow nutsedge (Cyperus esculentus), cocklebur (common cocklebur, Xanthium strumarium), smartweed (ladysthumb smartweed, and hairy beggarticks (Bidens pilosa), were planted into a silt loam soil and treated preemergence with test chemicals formulated in a non-phytotoxic solvent mixture which included a surfactant.
(§2) At the same time, plants from these crop and weed species and also horseweed (Canada horseweed, Conyza canadensis), waterhemp_RES1, (ALS & Triazine resistant common waterhemp, Amaranthus rudis), and waterhemp_RES2, (ALS & HPPD resistant common waterhemp, Amaranthus rudis) were planted in pots containing Redi-Earth® planting medium (Scotts Company, 14111 Scottslawn Road, Marysville, Ohio 43041) comprising spaghnum peat moss, vermiculite, wetting agent and starter nutrients were treated with postemergence applications of test chemicals formulated in the same manner. Plants ranged in height from 2 to 18 cm for postemergence treatments (1- to 4-leaf stage). Treated plants and controls were maintained in a greenhouse for 14 to 21 days, after which time all species were compared to controls and visually evaluated. Plant response ratings, summarized in Table E, are based on a scale of 0 to 100 where 0 is no effect and 100 is complete control. A dash (-) response means no test result.

corn = experiment: Test E preemergence; assay type: in vivo, Zea mays; conditions: for Corn plant response rating: scale 0 to 100 (0 no effect, 100 complete control); for Plant response rating, Corn: scale 0 to 100, 0 no effect, 100 complete control
Description: as §1, §2

barnyardgrass [1] = experiment: Test E preemergence; assay type: in vivo, Echinochloa crus-galli; conditions: for Barnyardgrass plant response rating: scale 0 to 100 (0 no effect, 100 complete control); for Plant response rating, Barnyardgrass: scale 0 to 100, 0 no effect, 100 complete control
Description: as §1, §2

morningglory = experiment: Test E preemergence; assay type: in vivo, Ipomoea coccinea; conditions: for Morningglory plant response rating: scale 0 to 100 (0 no effect, 100 complete control); for Plant response rating, Morningglory: scale 0 to 100, 0 no effect, 100 complete control
Description: as §1, §2

johnsongrass = experiment: Test E preemergence; assay type: in vivo, Sorghum halepense; conditions: for Johnsongrass plant response rating: scale 0 to 100 (0 no effect, 100 complete control); for Plant response rating, Johnsongrass: scale 0 to 100, 0 no effect, 100 complete control
Description: as §1, §2

giant foxtail = experiment: Test E preemergence; assay type: in vivo, Setaria faberii; conditions: for Foxtail, Giant plant response rating: scale 0 to 100 (0 no effect, 100 complete control); for Plant response rating, Foxtail, Giant: scale 0 to 100, 0 no effect, 100 complete control
Description: as §1, §2

field bindweed = experiment: Test E preemergence; assay type: in vivo, Convolvulus arvensis; conditions: for Field Bindweed plant response rating: scale 0 to 100 (0 no effect, 100 complete control); for Plant response rating, Field Bindweed: scale 0 to 100, 0 no effect, 100 complete control
Description: as §1, §2

arrowleaf sida = experiment: Test E preemergence; assay type: in vivo, Sida rhombifolia; conditions: for Arrowleaf Sida plant response rating: scale 0 to 100 (0 no effect, 100 complete control); for Plant response rating, Arrowleaf Sida: scale 0 to 100, 0 no effect, 100 complete control
Description: as §1, §2

rice = experiment: Test C flooded paddy test; assay type: in vivo, Oryza sativa; conditions: Flood, scale 0 to 100 (0 no effect, 100 complete control), 13 to 15 days
How it was run: (§3)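 In-water treatment: compound dosed into 3 cm flood over soil, water level unchanged throughout. Controls run alongside; visual assessment at day 13–15.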

Italian ryegrass [2] = experiment: Test A preemergence; assay type: in vivo, Lolium multiflorum
How it was run: (§4)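 Visual 0–100 rating (100 = complete control) taken about 10 d post-treatment relative to untreated checks. Preemergence: directed soil spray on sown loam/sand pots. Postemergence: seedlings 2–10 cm, 1–2 leaf. Non-phytotoxic solvent formulation with surfactant.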

galium = experiment: Test A postemergence; assay type: in vivo, Galium aparine
How it was run: as §4

barnyardgrass [3] = experiment: Test C flooded paddy test; assay type: in vivo, Echinochloa crus-galli; conditions: Flood, scale 0 to 100 (0 no effect, 100 complete control), 13 to 15 days
How it was run: as §3

Italian ryegrass [4] = experiment: Test A postemergence; assay type: in vivo, Lolium multiflorum; conditions: 31 g ai/ha, 0 to 100 scale, 0 no effect, 100 complete control
How it was run: as §4

sedge, umbrella = experiment: Test C flooded paddy test; assay type: in vivo, Cyperus difformis; conditions: Flood, scale 0 to 100 (0 no effect, 100 complete control), 13 to 15 days
How it was run: as §3

ragweed = experiment: Test A postemergence; assay type: in vivo, Ambrosia elatior; conditions: 31 g ai/ha, 0 to 100 scale, 0 no effect, 100 complete control
How it was run: as §4

[5] = 125 g ai/ha, 0 to 100 scale where 0 is no effect and 100 is complete control

For `FC(F)(F)c1cnn(-c2ccccc2Oc2ncc(Cl)cn2)c1` [Compound 16], the “Goosegrass plant response rating” value (goosegrass; 16 g ai/ha) was 0, the “Goosegrass plant response rating” value (goosegrass; 31 g ai/ha) was 35 and the “Goosegrass plant response rating” value (goosegrass; 62 g ai/ha) was 50. The “Plant response rating, Goosegrass” value (goosegrass; 125 g ai/ha) was 75, the “Plant response rating, Goosegrass” value (goosegrass; 250 g ai/ha) was 95 and the “Corn plant response rating” value (corn; 16 g ai/ha) was 0. For the same compound, the “Corn plant response rating” value (corn; 31 g ai/ha) was 0, the “Corn plant response rating” value (corn; 62 g ai/ha) was 0 and the “Plant response rating, Corn” value (corn; 125 g ai/ha) was 20. For the same compound, the “Plant response rating, Corn” value (corn; 250 g ai/ha) was 25, the “Barnyardgrass plant response rating” value (barnyardgrass [1]; 16 g ai/ha, preemergence) was 0 and the “Barnyardgrass plant response rating” value (barnyardgrass [1]; 31 g ai/ha, preemergence) was 0. The “Plant response rating, Barnyardgrass” value (barnyardgrass [1]; Preemergence, 62 g ai/ha) was 0, the “Plant response rating, Barnyardgrass” value (barnyardgrass [1]; preemergence, 125 g ai/ha) was 10 and the “Plant response rating, Barnyardgrass” value (barnyardgrass [1]; preemergence, 250 g ai/ha) was 40. For the same compound, the “Morningglory plant response rating” value (morningglory; 16 g ai/ha) was 0, the “Morningglory plant response rating” value (morningglory; 31 g ai/ha) was 0 and the “Morningglory plant response rating” value (morningglory; 62 g ai/ha) was 0. The “Plant response rating, Morningglory” value (morningglory; 125 g ai/ha) was 25, the “Plant response rating, Morningglory” value (morningglory; 250 g ai/ha) was 95 and the “Johnsongrass plant response rating” value (johnsongrass; 16 g ai/ha) was 0. The “Johnsongrass plant response rating” value (johnsongrass; 31 g ai/ha) was 0, the “Johnsongrass plant response rating” value (johnsongrass; 62 g ai/ha) was 0 and the “Plant response rating, Johnsongrass” value (johnsongrass; 125 g ai/ha) was 25. For the same compound, the “Plant response rating, Johnsongrass” value (johnsongrass; 250 g ai/ha) was 40, the “Foxtail, Giant plant response rating” value (giant foxtail; 16 g ai/ha) was 15 and the “Foxtail, Giant plant response rating” value (giant foxtail; 31 g ai/ha) was 20. For the same compound, the “Foxtail, Giant plant response rating” value (giant foxtail; 62 g ai/ha) was 100, the “Plant response rating, Foxtail, Giant” value (giant foxtail; 125 g ai/ha) was 100 and the “Plant response rating, Foxtail, Giant” value (giant foxtail; 250 g ai/ha) was 100. For the same compound, the “Field Bindweed plant response rating” value (field bindweed; 16 g ai/ha) was 0, the “Field Bindweed plant response rating” value (field bindweed; 31 g ai/ha) was 0 and the “Field Bindweed plant response rating” value (field bindweed; 62 g ai/ha) was 0. The “Plant response rating, Field Bindweed” value (field bindweed; 125 g ai/ha) was 30, the “Plant response rating, Field Bindweed” value (field bindweed; 250 g ai/ha) was 60 and the “Arrowleaf Sida plant response rating” value (arrowleaf sida; 16 g ai/ha, preemergence) was 5. The “Arrowleaf Sida plant response rating” value (arrowleaf sida; 31 g ai/ha, preemergence) was 35, the “Plant response rating, Arrowleaf Sida” value (arrowleaf sida; Preemergence, 62 g ai/ha) was 70 and the “Plant response rating, Arrowleaf Sida” value (arrowleaf sida; preemergence, 125 g ai/ha) was 95. For the same compound, the “Plant response rating, Arrowleaf Sida” value (arrowleaf sida; preemergence, 250 g ai/ha) was 98.

For `FCc1cccc(Oc2ncc(Br)cn2)c1-n1cc(C(F)(F)F)cn1` [Compound 120], the “Plant response rating, Rice” value (rice; 31 g ai/ha) was 0, the “Plant response rating, Rice” value (rice; 62 g ai/ha) was 0 and the “Plant response rating, Rice” value (rice; 125 g ai/ha) was 15. The “Plant response rating, Rice” value (rice; 250 g ai/ha) was 60, the “Ryegrass, Italian plant response rating (0 to 100 scale)” value (Italian ryegrass [2]; 31 g ai/ha) was 0 and the “Plant response rating, Ryegrass, Italian” value (Italian ryegrass [2]; [5]) was 30. The “Plant response rating, Galium” value (galium; 31 g ai/ha, 0 to 100 scale, 0 no effect, 100 complete control) was 90, the “Plant response rating, Galium” value (galium; [5]) was 100 and the “Plant response rating, Barnyardgrass” value (barnyardgrass [3]; 31 g ai/ha) was 0. The “Plant response rating, Barnyardgrass” value (barnyardgrass [3]; 62 g ai/ha) was 0, the “Plant response rating, Barnyardgrass” value (barnyardgrass [3]; 125 g ai/ha) was 60 and the “Plant response rating, Barnyardgrass” value (barnyardgrass [3]; 250 g ai/ha) was 85. For the same compound, the “Plant response rating, Ryegrass, Italian” value (Italian ryegrass [4]) was 0, the “Plant response rating, Sedge, Umbrella” value (sedge, umbrella; 31 g ai/ha) was 0 and the “Plant response rating, Sedge, Umbrella” value (sedge, umbrella; 62 g ai/ha) was 0. For the same compound, the “Plant response rating, Sedge, Umbrella” value (sedge, umbrella; 125 g ai/ha) was 60, the “Plant response rating, Sedge, Umbrella” value (sedge, umbrella; 250 g ai/ha) was 85 and the “Plant response rating, Ragweed” value (ragweed) was 30.
